Here are results for three compounds from EP0294814B1, “Treating agents for renal diseases” (DAIICHI PHARMACEUTICAL CO., LTD., priority 1987, dated 1988).

Counter-ions that a name gives are not always drawn.

In data set [1] the test system is Diabetic SHR. The data set can be described thus: Diabetic nephropathy model: excretion of protein, γ-GTP and NAβG in the urine. The class given is in vivo, rat. To be noted: after 4 months of administration. How it is done: (§1) 5-Week old spontaneous hypertensive male rats (SHR) and normotensive Wister Kyoto rats (WKY), both available from Nippon Charles River, were used. Streptozotocin (STZ) was dissolved in a 0.1M citrate buffer solution (pH 4.5) and injected to the tail vein of the rat at a dose level of 50 mg/kg to prepare a diabetic rat. For control, the rat received 1 ml/kg of the citrate buffer solution alone through administration to the tail vein. After one week from the STZ administration, blood was taken from the tail vein of the unanesthetized rat, and the blood sugar level was measured. Those rats having a blood sugar level of […] or higher were used as diabetic rats. […]
After 4 months from the start of the administration of Compound A, urine was collected for 24 hours, and the protein, γ-GTP activity and NAβG activity in the urine were determined by the method of Kinsbury et al., the method of using a commercially available kit (γ-GTP Test Pack, produced by Sankyo Co., Ltd.), and the method of Hasebe et al., respectively.

Data set [2] can be described thus: Diabetic nephropathy model: influence on body weight of SHR and diabetic SHR. The class given is in vivo, rat. Particulars: SHR. How it is done: as §1
A short description of data set [3]: Hydronephrosis model: clearance test. The data set is classed as in vivo, SD male rat. To be noted: Normal Kidney, 0.3 µg/min infused into renal artery, mean±S.E. of 5 cases. How it is done: (§2) An abdominal incision was made in a SD male rat having a body weight of from 300 to 400 g under light anesthesia with diethyl ether. After the left urinary tract was ligated in the middle between the bladder and the kidney, the incision was closed, and the animal was fed on foods and tap water, ad lib.
(§3) After 18 hours from the ligation of the urinary tract, a cannula was inserted in the urinary tracts on both sides, the right femoral artery and the right femoral vein for collection of blood samples, infusion of inulin and infusion of p-aminohippuric acid, respectively, under Inactin anesthesia. Physiological saline containing 20 mg/ml of inulin and physiological saline containing 4 mg/ml of p-aminohippuric acid were continuously infused each at a rate of 0.4 ml/min in a 1/20 amount of the body weight. On confirming that the urinary output became constant after 50 minutes from the start of the infusion, urine was collected separately from the right and left urinary tracts at intervals of 20 minutes, and blood samples were obtained at the middle between urine collections. Immediately preceding the start of urine collection, infusion of physiological saline at a rate of 25 µl/min into the left femoral artery was instituted and continued for 40 minutes. Thereafter, a solution of a hydrochloride hemihydrate of Compound A in physiological saline was continuously infused at a dose level of 0.3 µg/25 µl/min/rat for 40 minutes into the inlet of the renal artery through a retrograde cannula inserted from the left femoral artery. Inulin levels in urine and in blood were determined according to the anthrone method (H.H. Hilger et al., Pflügers Arch Physiol., Vol. 267, 218 (1958)), and p-aminohippuric acid levels in urine and blood were determined according to the method of Smith et al. (H.W. Smith et al., J. Clin. Invest., Vol. 24, 388 (1945)), to calculate clearance values of inulin and p-aminohippuric acid.

Data set [4] relates to Hydronephrotic Kidney. The data set can be described thus: Hydronephrosis model: clearance test. The data set is classed as in vivo, SD male rat. Particulars: Normal Kidney, 0.3 µg/min infused into renal artery, mean±S.E. of 5 cases. Here is the method: as §2, §3
Data set [5] deals with Ischemic Insufficient Kidney. The data set can be described thus: Ischemic renal insufficiency model: renal function. Particulars: 10 mg/kg intraperitoneally 30 minutes before ligature of renal arteries; 24 hours after reperfusion; mean±S.E. The class given is in vivo, SD rat. How it is done:
An abdominal incision was made in a SD vale rat weighing 300 to 450 g under pentobarbital anesthesia, and renal arteries of both sides were ligated with a clamp for 40 minutes and then reopened to prepare an animal suffering from isochemic renal insufficiency.
The hydrochloride hemihydrate of Compound A was dissolved in physiological saline, and administered intraperitoneally to the test animal at a dose level of 10 mg/2 ml/kg 30 minutes before the ligature of the renal arteries. The control group received the same volume of physiological saline.
After the blood flow of the renal arteries was restored, the animal was fed on foods and tap water ad lib. for 24 hours. The clearance values of inulin and p-aminohippuric acid were determined in the same manner as described in Example 2.

For data set [6], the system named is thromboxane A₂. To be noted: known from prior art; cited from earlier work.
For data set [7], the system named is rats. Kind of data set: Acute toxicity in rats. The class given is in vivo. The source says: Acute toxicities of a hydrochloride hemihydrate of Compound A in rats through oral administration or intravenous injection were as follows.
The test system of data set [8] is diabetic nephropathy or glomerulonephritis. Particulars: applied to diabetic nephropathy or glomerulonephritis, literature reports; cited from earlier work.

Take `O=C(O)c1ccc2c(c1)CCC(Cn1ccnc1)C2` (centres unmarked) [Compound A, 6-(1-imidazolylmethyl)-5,6,7,8-tetrahydronaphthalene-2-carboxylic acid]: the entries for the “Excretion in Urine for 24 h NAβG” value in data set [1] (1 mg/kg/day oral) and in data set [1] (10 mg/kg/day oral) were 0.536± 0.086 mg/100 g B.W and 0.412± 0.056 mg/100 g B.W, respectively. Further, the results for the “Excretion in Urine for 24 h Protein” value in data set [1] (1 mg/kg/day oral) and in data set [1] (10 mg/kg/day oral) were 6.82± 1.56 mg/100 g B.W and 4.00± 0.59 mg/100 g B.W, respectively. Moreover, the “Excretion in Urine for 24 h γ-GTP” value in data set [1] (1 mg/kg/day oral) was 2.83± 0.32 U/100 g B.W; in data set [1] (10 mg/kg/day oral), 2.45± 0.22 U/100 g B.W. Further, the “Body Weight (Mean±S.E.)” value in data set [2] (1 mg/kg/day, 1 Month after start of admin.) worked out at 280.3 ± 4.0 g; in data set [2] (1 mg/kg/day, 5 Months after start of admin.) it was 392.4 ± 5.6 g; in data set [2] (10 mg/kg/day, 1 Month after start of admin.), 278.7 ± 5.3 g; in data set [2] (10 mg/kg/day, 5 Months after start of admin.), 385.3 ± 7.5 g. The “Inulin Clearance” value in data set [3] is given as 1.77± 0.13 ml/min/ kidney; in data set [5] it was 0.32± 0.05 ml/min/kidney. The entries for the “Urinary Output” value in data set [4] and in data set [5] were 7.47± 0.83 µℓ/min/ kidney and 11.30± 1.53 µl/min/kidney, respectively. In addition, the “p-Aminohippuric Acid Clearance” value in data set [4] was found to be 5.95±0.50 ml/min/kidney; in data set [5] it was 1.01±0.17 ml/min/kidney. Besides, the “inhibition of the synthesis of thromboxane A₂” value in data set [6] is recorded as “inhibit the synthesis of thromboxane A₂”.

Take `O=C(O)c1ccc2c(c1)CCC(Cn1ccnc1)C2` (centres unmarked) [hydrochloride hemihydrate of Compound A, 6-(1-imidazolylmethyl)-5,6,7,8-tetrahydronaphthalene-2-carboxylic acid]: the LD₅₀ in data set [7] (Female rats, i.v.) was 783 (i.v.) mg; in data set [7] (Female rats, p.o.), 1994 (p.o.) mg; in data set [7] (Male rats, i.v.), 807 mg; in data set [7] (Male rats, p.o.) it was 2438 mg.

With `Cl.O=C(O)/C=C/c1ccc(Cn2ccnc2)cc1` [(E)-3-(4-(1-Imidazolylmethyl)phenyl)propenoic acid hydrochloride, reference compound], in data set [6], the “inhibition of the synthesis of thromboxane A₂” value is “inhibit the synthesis of thromboxane A₂”. The “effect in treatment of renal diseases” value in data set [8] was “not satisfactory”.
